These are literature values, as cited in US4221778A, “Prolonged release pharmaceutical preparations” (Pennwalt Corporation, priority 1979, dated 1980).

Assay in series [1]: not given
This is another data set of the same source.

Assay in series [2]: not given
The source holds these as a separate data set.

Counter-ions that a name gives are not always drawn.

As to `COc1ccc2c(c1)[C@]13CCCC[C@@H]1[C@H](C2)N(C)CC3` [Dextromethorphan], the “effectiveness in patients with pathological cough” value in the series with pathological cough (compared with codeine) is reported as “about the equal of codeine”. Moreover, in the series with pathological cough (human, in vivo), the “analgesic or addictive properties” value is given as “no analgesic or addictive properties” and the toxicity entry was “quite low”. In addition, in the series with pathological cough (unlike codeine), the drowsiness result is “rarely produces drowsiness”.
Turning to `CN[C@@H](C)[C@H](O)c1ccccc1` [Ephedrine], the “biological half life in man” value is “about 6 hours”.
On to `CC(N)C(O)c1ccccc1` (stereo not shown) [PPA, phenylpropanolamine], for which the “biological half life in man” value is 3.9 hours. In addition, the pKa in series [1] was 9.4.
Regarding `CC(C)(N)Cc1ccccc1` [Phentermine hydrochloride], the “blood levels in humans” value in series [2] (hydrochloride salt, doses of 15 mg. and 30 mg.) is listed as “rapid peak concentrations”.
`CC(C)(N)Cc1ccccc1` [Phentermine, phenyl-tertiary-butyl-amine]: in series [2] (free form), the “absorption from the gastrointestinal tract” value is “rapidly absorbed”.
As to `CN[C@@H](C)[C@@H](O)c1ccccc1` [Pseudoephedrine], the “biological half life in man” value is 5-7 hours.

By pKa is commonly meant the negative logarithm of the acid dissociation constant.
